Molecules are shown by their SMILES.

This is an account of results in US10144730B2, “Inhibitors of c-Jun-N-terminal kinase (JNK)” (Dana-Farber Cancer Institute, Inc., priority 2011, dated 2018).

Test [1] deals with c-Jun phosphorylation. Description: LanthaScreen TR-FRET cell assay for c-Jun phosphorylation in HeLa cells. Type of test: cell-based. How it is done: Phosphorylation was determined by measuring the time resolved FRET (TR-FRET) between a terbium labeled phospho-c-Jun specific antibody and GFP. The cells were plated in white tissue culture treated 384 well plates at a density of 10,000 cell per well in 32 μL assay medium (Opti-MEM®, supplemented with 0.5% charcoal/dextran-treated FBS, 100 U/ml penicillin and 100 μg/ml streptomycin, 0.1 mM nonessential amino acids, 1 mM sodium pyruvate, 25 mM Hepes, pH 7.3, and lacking phenol red). After overnight incubation, cells were pretreated for 90 minutes with compound (at indicated concentration) diluted in 4 μL assay buffer followed by 30 min of stimulation with 5 ng/ml of TNF-α in 4 μL assay buffer (final assay volume was 40 μl). The medium was then removed by aspiration, and the cells were lysed by adding 20 μl of lysis buffer (20 mM Tris-HCl, pH 7.6, 5 mM EDTA, 1% Nonidet P-40 substitute, 5 mM NaF, 150 mM NaCl, and 1:100 protease and phosphatase inhibitor mix, SIGMA P8340 and P2850, respectively). The lysis buffer included 2 nM of the terbium-labeled anti-c-Jun (pSer73) detection antibodies (Life Technologies). After allowing the assay to equilibrate for 60 minutes at room temperature, TR-FRET emission ratios were determined on a BMG Pherastar fluorescence plate reader (BMG Labtech, Cary, N.C.) using the following parameters: excitation at 340 nm; emission at 520 nm and 490 nm; 100 μs lag time; 200 μs integration time; and emission ratio=Em520/Em490. All data were analyzed and plotted using Graphpad Prism 4.
(§1) In parallel with biochemical evaluation, the ability of the compounds to inhibit JNK activity in cells was investigated using two independent assays formats. This is a critical issue because there are several reported JNK inhibitors with nanomolar biochemical potency that translate into micromolar cellular inhibitors. The most well characterized direct phosphorylation substrate of JNK is the transcription factor c-Jun.
In general terms: In TR-FRET formats the signal depends on donor and acceptor labels being close together.

Test [2] addresses JNK2 (Homo sapiens, UniProt P45984). Conditions: Table 2, *Literature values; cited from earlier work.
Test [3] relates to c-Jun phosphorylation. Description: High throughput microscopy of c-Jun phosphorylation in A375 cells. Type of test: cell-based. Conditions: A375 cells, anisomycin stimulation; read-out: p-c-Jun EC50 (nM) A375. How it is done: Cells were fixed in 2% paraformaldehyde for 10 min at room temperature and washed with PBS-T (Phosphate Buffered Saline, 0.1% Tween 20). Cells were permeabilized in methanol for 10 min at room temperature, washed with PBS-T, and blocked in Odyssey Blocking Buffer (LI-COR Biosciences) for 1 hour at room temperature. Cells were incubated overnight at 4° C. with antibody specific for Erk1/2(pT202/pY204), Akt(pS473), c-Jun(pS73), pP38(T180/Y182) and pSTAT3(Y705) (Cell Signaling Technology), pRSK1(S380) and pMSK1(S376) (Epitomics), and NF-κB (Santa Cruz Biotechnology) diluted 1:400 in Odyssey Blocking Buffer. […] Cells were washed twice with PBS and imaged in an imageWoRx high-throughput microscope (Applied Precision). Data were plotted using DataPflex.
as §1

Test [4] has as its target JNK1 (Homo sapiens, UniProt P45983). Conditions: Table 2, *Literature values; cited from earlier work.

Chain of JNK2 (P45984 whole entry): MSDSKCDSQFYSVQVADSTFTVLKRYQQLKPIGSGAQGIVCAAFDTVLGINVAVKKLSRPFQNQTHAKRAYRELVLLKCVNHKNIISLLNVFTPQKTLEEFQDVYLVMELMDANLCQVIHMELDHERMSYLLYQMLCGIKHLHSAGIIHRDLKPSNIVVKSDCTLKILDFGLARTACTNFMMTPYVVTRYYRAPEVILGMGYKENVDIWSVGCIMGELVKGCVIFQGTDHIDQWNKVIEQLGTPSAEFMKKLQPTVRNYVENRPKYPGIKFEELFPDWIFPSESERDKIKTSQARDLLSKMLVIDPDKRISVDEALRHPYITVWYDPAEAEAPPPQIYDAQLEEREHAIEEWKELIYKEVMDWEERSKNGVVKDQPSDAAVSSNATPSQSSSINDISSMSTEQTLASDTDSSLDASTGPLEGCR
Chain of JNK1 (P45983 whole entry): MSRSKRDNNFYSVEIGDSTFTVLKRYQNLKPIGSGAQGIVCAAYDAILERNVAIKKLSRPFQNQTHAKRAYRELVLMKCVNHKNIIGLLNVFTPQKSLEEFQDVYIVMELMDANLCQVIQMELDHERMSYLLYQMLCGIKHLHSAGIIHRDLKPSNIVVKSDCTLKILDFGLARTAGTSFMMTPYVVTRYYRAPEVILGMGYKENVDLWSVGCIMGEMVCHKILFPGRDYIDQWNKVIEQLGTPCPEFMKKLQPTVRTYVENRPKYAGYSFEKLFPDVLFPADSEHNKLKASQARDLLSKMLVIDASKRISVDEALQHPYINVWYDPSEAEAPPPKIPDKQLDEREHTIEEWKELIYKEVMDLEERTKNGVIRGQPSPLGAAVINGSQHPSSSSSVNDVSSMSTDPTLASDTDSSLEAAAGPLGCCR

By EC50 is commonly meant the midpoint of the concentration-response curve. Usually IC50 stands for the concentration needed to halve the response being measured. Regarding `N#CC(c1ccnc(NCCc2cccnc2)n1)c1nc2ccccc2s1` (centres unmarked) [AS601245, reference compound], in test [1] (HeLa and A375 formats, tested in parallel), the “IC50's for c-Jun phosphorylation in both cellular assay formats” value is recorded as “micromolar range”. For the same compound, the EC50 came out at 2020 nM in test [1] (Hela cells, TNF-α stimulation, read-out: p-c-Jun EC50 (nM) Hela) and 2400 nM in test [3]. Moreover, the values for the IC50 in test [2] and in test [4] were 220 nM and 150 nM, respectively.
